Test results taken from article PMC6362252, “A cell-free platform for the prenylation of natural products and application to cannabinoid production” (Nature Communications, 2019).

Key:
[1] = target: NphB (Streptomyces sp. CL190, UniProt Q4R2T2, A232S/Y288A); conditions: M30; otherwise same
[2] = target: T1, cannabidiolic acid synthase (CBDAS); CBDA synthase (Cannabis sativa, UniProt A6P6V9); test: HPLC of product CBDA; assay type: biochemical; conditions: concentrated expression medium, 25 µM FAD, 5 mM MgCl2, 5 mM KCl, 50 mM Hepes pH 7.0, 30 °C, nonane overlay
T1 construct: native signal peptide removed, starts at residue 28 (NPREN...), pPICZalpha, secreted by Pichia pastoris X33, concentrated culture medium (not purified)

| SMILES | Km [1] [µM] | HPLC of product CBDA [2] |
| --- | --- | --- |
| CCCCCc1cc(O)cc(O)c1C(=O)O [olivetolic acid] | 200 ± 40 |  |
| CCCCCc1cc(O)c(C/C=C(\C)CCC=C(C)C)c(O)c1C(=O)O [cannabigerolic acid] |  | we employed CBDA synthase to convert CBGA into CBDA and CBGVA into CBDVA |
